# What was measured:
# [1] = target: T1, recombinant human Bcl-2ΔC22 (Homo sapiens, UniProt P10415); assay: Antimycin A3 fluorescence binding and competition assay; settings: 2 μM each, Bcl-2 3 μM, 7.5 minutes, 22.5° C.
# T1 construct: poly-His (N); made in house
# Protocol: In this assay, 0 to 5 μM antimycin A3 (Sigma Chemical Co., St. Louis, Mo.) was added to a physiological buffer (50 mM Tris-HCl pH 8.0, 0.2 M NaCl, 2 mM EDTA, 0.5% v/v glycerol) containing recombinant Bcl-2 or BCl-xL protein under conditions that permitted antimycin A3 to bind to the BH3-binding domain of Bcl-2 or BCl-xL (22.5° C. on a Hitachi F-2500 fluorescence spectrofluorimeter equipped with a thermostatted cell holder). […] The excitation wavelength was 335 nm, and the maximum emission wavelength for antimycin A3 was 428 nm with a slit width of 10 nm. The samples were mixed in a quartz cuvette and checked for inner filter effect over the concentration range of antimycin A3 used for this study. Blanks containing antimycin A3 at the same concentration as the experimental samples were used as controls in all measurements and necessary background corrections were made.
# Recombinant human Bcl-2ΔC22 (a recombinant human Bcl-2 with a delection of 22 amino acid residue membrane anchor sequence from the carboxyl end) and mouse Bcl-xLΔC20 (a recombinant murine BCl-xL with a delection of the 20 amino acid residue membrane anchor sequence from the carboxyl end) fused with poly-His at the N-terminus were chromatographically purified to homogeneity. The concentrations of antimycin A3 and stock solutions of recombinant proteins were quantitated using an extinction coefficient of 7.24/mM/cm at 320 nm and by Bradford assay, respectively. The stoichiometric ratio of antimycin A3 and Bcl-2 producing the maximal change in antimycin A3 fluorescence was determined with incremental addition of antimycin A3 to a 1.98 μM solution of recombinant Bcl-2 in a volume of 2.1 milliliters. […] For peptide displacement experiments, a solution of 2 μM antimycin A3 and 3 μM Bcl-2 was allowed to reach binding equilibrium at 4° C. prior to fluorescence measurements. Native peptide corresponding to the BH3 domain of Bak (72-[…]87 (SEQ ID NO:1)) or a mutant peptide with a single amino acid change (Leu78Ala-BH3) was added to the solution and the fluorescence measurements were repeated. […]
# [2] = target: T2, Bcl-xL(ΔC) WT (Homo sapiens, UniProt Q07817); assay: Pore-forming activity, calcein release from liposomes; format: biochemical
# T2 construct: inferred from Ni-NTA purification and the pET22b(+) NdeI/XhoI cloning); made in house; host or cells: Escherichia coli BL21(DE3) carrying pUB520
# Protocol: Large unilamellar vesicles composed of 60% dioleoylphophatidylcholine and 40% dioleoylphosphatidylglycerol were prepared by the extrusion method of Mayer et al., supra. Lipid stocks, in chloroform, were mixed and dried under a stream of nitrogen gas. The lipid was resuspended by vortexing for 30 min in a solution of 40 mM calcein (Molecular Probes), 25 mM KCl, and 10 mM KOAc, pH 5.0. After 10 freeze-thaw cycles, the lipid suspension was extruded through two 0.1 μm pore diameter Nucleopore filters. Non-entrapped dye was removed by passage over a Sephadex G10 column (Amersham Biosciences). Lipid concentration was measured using the ammonium ferrothiocyanate method (Stewart, Anal. Biochem. 104:10-14, 1980).
# For pore assays, recombinant truncated Bcl-2 family protein or mutant protein (Bcl-xL(ΔC)) (500 nM) was added to large unilamellar vesicles (60 μM lipid concentration) in 100 mM KCl, 10 mM KOAc, pH 5.0, and fluorescence measured (490 nm excitation, 520 nm emission) with a Fluoromax-3 spectrophotometer. Peptides of the BH3 domain were incubated with the BCl-xL(ΔC) 5 min prior to mixing with liposomes. AA1 was added to liposomes 1 min before adding the Bcl-xL(ΔC) protein. Samples for kinetic assays were analyzed in a thermostatted cuvette at 37° C. with constant stirring. Dose responses were measured in black quartz microplates (Hellma) at room temperature. Calcein release was expressed as percentage of maximum release with detergent lysis (0.1% Triton X-100).
# [3] = test system: TABX2S cells (over-expressing Bcl-xL); assay: cells
# Source text: Briefly, a DNA fragment encoding the full-length mouse BCl-xL cDNA was isolated from the plasmid PBS.BCL-xL (Tzung et al., Am. J. Path. 150:1985-1995, 1997, incorporated herein by reference in its entirety) by digestion with the restriction endonuclease EcoRI. This EcoRI fragment was cloned into the EcoRI site of the mammalian expression vector pSFFV (Fuhlbrigge et al., Proc. Nat. Acad. Sci. USA 85:5649-5653, 1988) in both sense and antisense orientations, to form expression plasmids pSFFV.Bcl-xL(sense) or pSFFV.Bcl-xL(antisense), respectively. The tumorigenic murine hepatocyte cell line TAMH was transfected by lipofection (Lipofectamine, Life Technologies, Rockville, Md., according to the manufacturer's recommendations) with the plasmids pSFFV.neo (the control), pSFFV.Bcl-xL(sense) or pSFFV.Bcl-xL(antisense). […] Transfectants were selected for the acquisition of neomycin resistance by growing cells in the presence of 750 μg/ml of G418. Bulk transfectants were cloned by limiting dilution and individual clones were screened by immunoblot analysis to determine the level of BCl-xL protein expression as described below.
# Selected transfectants were then tested for whole cell sensitivity to several apoptotic agents. Transfected cells were cultured to reach approximately 80% confluency prior to plating an equal number of cells from selected clones on 12-well tissue culture plates. The transplanted cells were treated with the following apoptotic agents: 5 μM doxorubicin for 48 hours; 5 μM cisplatin for 48 hours; or with 200 U/ml tumor necrosis factor (TNF) plus 1 μg/ml actinomycin D for 18 hours. Cell viability was determined by trypan blue dye exclusion. The percentage of viable cells was calculated by the number of viable cells (treated with a particular apoptogenic agent) divided by the number in the control group (untreated).
# TABX2S cells and TABX1A cells were also examined for the effects of various mitochondrial inhibitors. […] Azide was diluted from an aqueous stock solution. […] Controls received an equivalent concentration of diluent. At various time points after drug treatment, cells were trypsinized, and cell viability was determined by trypan blue dye exclusion. The number of viable cells were counted and normalized to control group (i.e., % control=number of viable cells (treated group)/number of viable cells (control group)×100).
# [4] = Stability in plasma; format: in vitro ADME, mouse; settings: for stability: 37° C., 60 min
# Protocol: (§1) For analysis of samples, two volumes of cold methanol-acetonitrile (50:50, v/v) were added to portions of plasma, culture medium, or cell extract. The preparations were mixed and then centrifuged to obtain clear supernatants, which were dried at room temperature by compressed air. The residues were dissolved in the mobile phase, and a portion was injected onto the HPLC column.
# (§2) The HPLC equipment consisted of a Hewlett Packard 1050 ChemStation with a fluorescence detector (Agilent 100 series). […] The mobile phase was methanol:ammonium acetate buffer (87:13 v/v; 0.2 M; pH 5.8, adjusted with HCl). The flow rate was 1 ml/min. The column elute was monitored fluorometrically at an excitation wavelength of 232 nm and an emission wavelength of 418 nm. The amounts of test compounds present in samples were determined from the peak areas.
# (§3) Samples of mouse, rat, dog, and human plasma were incubated at 37° C. with and without addition of NaF (2.5 mg/ml) and EDTA (1 mg/ml). To these preparations, 2-OMe antimycin A1, 2-OMe antimcyin A2, 2-OMe antimycin A3, or 2-OMe antimycin A5, dissolved in methanol, was added to final concentrations of 500 ng/ml. Portions of plasma, taken at selected times after addition of the 2-OMe antimycin analog, were extracted and analyzed.
# (§4) Similarly, the stability of 2-OMe antimycin A1, 2-OMe antimycin A2, […] in the plasma from mice and humans was evaluated at −80° C. From these preparations, portions were analyzed immediately; other portions were stored at -80° C. and analyzed after 1, 2, and 4 weeks.
# [5] = Stability in plasma; format: in vitro ADME, rat; settings: 37° C., 60 min, presence of NaF/EDTA
# Protocol: as §1, §2, §3
# [6] = Stability in plasma; format: in vitro ADME, dog; settings: 37° C., 60 min; for stability: presence of NaF/EDTA
# Protocol: as §1, §2, §3
# [7] = Stability in plasma; format: in vitro ADME, human; settings: for stability: 60 min
# Protocol: as §1, §2, §3, §4
# [8] = test system: plasma proteins; assay: Binding to plasma proteins (ultrafiltration); format: in vitro ADME, mouse; settings: presence of NaF+EDTA, 1000 ng/ml
# Protocol: (§5) Solutions of 2-OMe antimycin A3 were diluted with plasma (dog or human) containing NaF+EDTA to final concentrations of 1.0 or 0.2 μg/ml. Controls were diluted with water to the same final concentrations. These preparations were incubated at 37° C. for 20 min, at which time portions were taken and placed in the sample reservoirs of Amicon Centrifree® ultrafiltration systems (Millipore Co., Bedford, Mass.). At 37° C., the filter systems were centrifuged until the reservoirs were dry. From each filtrate, portions were taken for analysis by HPLC. The amounts present were designated as “free drug” (F). The concentrations of the unfiltered solutions were also determined by triplicate analyses. This amount represented the “total drug” concentration (T). The percentage of 2-OMe antimycin A3 bound to plasma proteins was calculated by the following formula: % bound=((T−F)/T)×100
# [9] = test system: plasma proteins; assay: Binding to plasma proteins (ultrafiltration); format: in vitro ADME, rat; settings: presence of NaF+EDTA, 1000 ng/ml
# [10] = test system: plasma proteins; assay: Binding to plasma proteins (ultrafiltration); format: in vitro ADME, dog; settings: presence of NaF+EDTA, 1000 ng/ml
# Protocol: as §5
# Similar experiments were performed for 2-OMe antimycin A3 in dog or rat plasma in the absence of NaF/EDTA.
# [11] = test system: plasma proteins; assay: Binding to plasma proteins (ultrafiltration); format: in vitro ADME, human; settings: presence of NaF+EDTA, 1000 ng/ml
# Protocol: as §5
# [12] = test system: RPMI-8226 cells; assay: GI50 assay (MTT); format: cell-based, human
# Protocol: RPMI 8226 cells were grown in 96 well plates for 24 h prior to addition of 2-methoxy Antimycins. Antimycin stocks in DMSO were serially diluted in RPMI media. Cells were incubated for 48 h with compounds at final compound concentrations ranging from 10^−4 to 10^−8 M. MTT assays were performed in quadruplicate and percent growth inhibitions were calculated as (A570 (control cells)—A570 (treated cells))/A570 (control cells). The GI50 was extrapolated from semi-log plots of the dose response for each compound. […] After 72 h drug exposures, 1 μCi/ml [^3H]-thymidine was added to wells. Cells were incubated for an additional 24 h, and then transferred to GF/C filter plates (Packard) using a plate washer. Filters were dried, added to scintillant, and counted in a TopCount scintillation counter (Packard). Drug response was expressed as the percentage of vehicle-treated controls, and each value shown as the average of three determinations.
# T1 sequence (P10415 1-217 limits assumed, stated change not applied): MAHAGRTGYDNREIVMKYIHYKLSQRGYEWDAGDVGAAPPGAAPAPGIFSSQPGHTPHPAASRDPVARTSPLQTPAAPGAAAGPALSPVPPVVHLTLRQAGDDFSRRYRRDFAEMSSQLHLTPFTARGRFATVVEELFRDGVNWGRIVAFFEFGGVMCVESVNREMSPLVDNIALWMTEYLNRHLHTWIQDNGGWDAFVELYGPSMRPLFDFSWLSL
# T2 sequence (Q07817 1-211 limits assumed, stated change not applied): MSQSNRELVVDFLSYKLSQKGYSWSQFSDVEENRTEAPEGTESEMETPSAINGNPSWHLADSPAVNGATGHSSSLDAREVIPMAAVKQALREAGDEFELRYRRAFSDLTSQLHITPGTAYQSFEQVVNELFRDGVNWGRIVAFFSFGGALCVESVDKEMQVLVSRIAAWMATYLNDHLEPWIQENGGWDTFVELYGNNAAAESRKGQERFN
SMILES,competition with antimycin A3 for Bcl-2 [1],effect on Bcl-xL pore-forming activity [2],difference in sensitivity of the two cell lines ([3]; TABX2S vs TABX1A),"time until cell death apparent ([3]; after treatment, TABX2S and TABX1A cells)",stability ([4]; presence of NaF/EDTA),"amounts remaining after 4 weeks ([4]; -80° C., presence of NaF/EDTA)","amounts remaining after 4 weeks ([4]; −80° C., absence of NaF/EDTA)",stability [5],"added amount remaining ([6]; absence of NaF/EDTA, 500 ng/ml)",stability [6],"stability ([7]; 37° C., presence of NaF/EDTA)","decrease in concentration ([7]; 37° C., presence of NaF/EDTA)","amounts remaining after 4 weeks ([7]; -80° C., presence of NaF/EDTA)","amounts remaining after 4 weeks ([7]; −80° C., absence of NaF/EDTA)","Protein binding, Mouse [8]","Protein binding, Rat [9]","Protein binding, Dog [10]","Protein binding, Human [11]","GI50 ([12]; 48 h, MTT)","activity relative to 2-OMeA1, 2-OMeA2 and 2-OMeA3 (GI50) [12]"
CCCC[C@H]1C(=O)O[C@H](C)[C@H](NC(=O)c2cccc(NC=O)c2OCC(=O)c2ccccc2)C(=O)O[C@@H](C)[C@@H]1OC(=O)CC(C)C [phenacyl ether antimycin A3],did not displace antimycin A3,no effect,–,–,–,–,–,–,–,–,–,–,–,–,–,–,–,–,–,–
CC(C)[C@@H]1NC(=O)[C@H](C)OC(=O)[C@@H](C(C)C)NC(=O)[C@@H](C(C)C)OC(=O)[C@H](C(C)C)NC(=O)[C@H](C)OC(=O)[C@@H](C(C)C)NC(=O)[C@@H](C(C)C)OC(=O)[C@H](C(C)C)NC(=O)[C@H](C)OC(=O)[C@@H](C(C)C)NC(=O)[C@@H](C(C)C)OC1=O [valinomycin],–,–,no significant differences,six to eight,–,–,–,–,–,–,–,–,–,–,–,–,–,–,–,–
"CCCCCC[C@H]1C(=O)O[C@H](C)[C@H](NC(=O)c2cccc(NC=O)c2OC)C(=O)O[C@@H](C)[C@@H]1OC(=O)CCC [2-OMeA2, 2-methoxy antimycin A2]",–,–,–,–,generally stable,77%,63%,generally stable,53%,generally stable,generally stable,18%,83%,70%,99.7%,99.9%,99.9%,>99.9%,12.2 µM,–
"CC[C@H]1C(=O)O[C@H](C)[C@H](NC(=O)c2cccc(NC=O)c2OC)C(=O)O[C@@H](C)[C@@H]1OC(=O)CC(C)C [2-OMeA5, 2-OMe antimycin A5]",–,–,–,–,notable decreases in concentration,63%,27%,notable decreases in concentration,–,stable,stable,–,92%,79%,99.7%,>99.9%,99.1%,99.6%,–,approximately ⅓

# Reference: patent US20050239873A1 (priority 1999, published 2005)
